Experimental data from ChEMBL document CHEMBL1128188, “Neurosteroid analogues. 3. The synthesis and electrophysiological evaluation of benz[e]indene congeners of neuroactive steroids having the 5 beta-configuration” (1995).
Active and inactive are the calls of the source. The calls are words filed in the database; no cut-off is given here.

What was measured:
Assay type in all cases: functional
Rattus norvegicus [1] = species: Rattus norvegicus; assay: The compound gated current reflects the peak current directly gated by 10 uM compound in the absence of GABA compared to the response obtained from the same cell in response to 1 uM GABA alone.
Rattus norvegicus [2] = species: Rattus norvegicus; assay: The Magnitude of the peak current produced by 1 uM GABA plus 1 uM compound was normalized with respect to the peak current produced by 1 uM GABA alone on the same cell.
Rattus norvegicus [3] = species: Rattus norvegicus; assay: The compound gated current reflects the peak current directly gated by 10 uM compound in the absence of GABA compared to the response obtained from the same cell in response to 1 uM GABA alone; No response
Rattus norvegicus [4] = species: Rattus norvegicus; assay: The Magnitude of the peak current produced by 1 uM GABA plus 1 uM compound was normalized with respect to the peak current produced by 1 uM GABA alone on the same cell. Values are mean+/-SEM

Compound | Effect (Rattus norvegicus [1]) | Response (Rattus norvegicus [2]) | Effect (Rattus norvegicus [3]) | Response (Rattus norvegicus [4])
CC(=O)C1CCC2C3CC[C@H](CCO)CC3CC[C@]12C (stereo partly specified) | 43 | 213% | – | –
C[C@]12CCC3C[C@@H](CCO)CCC3C1CC[C@@H]2O (stereo partly specified) | – | 93% | inactive | –
C[C@]12CCC3C[C@@H](CCO)CCC3C1CCC2=O (stereo partly specified) | – | 197% | inactive | –
CC(=O)[C@@H]1CC[C@H]2[C@@H]3CC[C@@H]4C[C@H](O)CCC4[C@H]3CC[C@]12C (stereo partly specified) | 30 | 523% | – | –
CC(C)(C)O[C@H]1CCC2C3CC[C@H](CCO)CC3CC[C@@]21C (stereo partly specified) | – | 114% | inactive | –
C[C@]12CCC3C[C@H](CCO)CCC3C1CC[C@@H]2C#N (stereo partly specified) | – | 346% | inactive | –
C[C@]12CC[C@@H]3C4CC[C@@H](O)C[C@H]4CC[C@H]3[C@@H]1CC[C@H]2C#N (stereo partly specified) | 49 | 443% | – | –
C[C@]12CCC3C[C@@H](CCO)CCC3C1CCC2C#N (stereo partly specified) | – | 104% | inactive | –
C[C@]12CCC3C[C@@H](CCO)CCC3C1CC[C@@H]2C#N (stereo partly specified) | 115 | 497% | – | –
CC(=O)[C@H]1CCC2C3CC[C@H](CCO)CC3CC[C@@]21C (stereo partly specified) | 113 | 312% | – | –
CC(=O)[C@H]1CCC2C3CC[C@@H](CCO)CC3CC[C@@]21C (stereo partly specified) | – | – | inactive | 489%
CC(=O)[C@@H]1CC[C@H]2[C@@H]3CC[C@H]4C[C@H](O)CCC4[C@H]3CC[C@]12C (stereo partly specified) | 144 | 521% | – | –
C[C@]12CC[C@@H]3C4CC[C@@H](O)C[C@@H]4CC[C@H]3[C@@H]1CC[C@H]2C#N (stereo partly specified) | 166 | 514% | – | –
